# Experimental data reported in patent US20060111289A1, “Compositions and methods of using Alpha-fetoprotein growth inhibitory peptides” (Serometrix, LLC,, priority 2004, published 2006).
# Where a SMILES comes first, the peptide text is derived from it.
# Experiments:
# MCF-7 cells = assay: MCF-7 cell proliferation assay (8 days, sulforhodamine B); format: cell-based, human
# Method: MCF-7 cells were seeded at 25,000 cells/well in 48 well microtiter plates, and incubated for eight days in the various test and control reagents. […] Tumor cells were fixed after 8 days and analyzed for proliferation using the standard sulfarhodamine B staining procedure.
# [1] = tested on: cell cycle gene mRNA in MCF-7 cells; assay: Quantitative RT-PCR of cell cycle gene mRNA in MCF-7 cells; format: cell-based, human; settings: for Cyclin E1 mRNA levels, Fold Decrease: eight day treatment
# Method: MCF-7 cell cultures grown in charcoal-stripped medium for 24 hours were seeded in 6-well plates and allowed to attach for 24 hours before treatment with 1×10^−7M of the cyclic, linear, or scrambled peptide, or a vehicle control for either 24 or 48 hours. Total RNA was isolated using TriReagent (Molecular Research Center Inc.) and quantified using the Genequant Pro (Ambersham Biosciences).
# Standard curves for each primer were prepared and RNA samples were reverse transcribed and screened for the genes of interest using the One Step RT-PCR kit (Qiagen Inc.) in the Roche Light Cycler. Each sample was run in duplicate, and the entire experiment was replicated resulting in two independent samples for each treatment.
# MCF-7 cell cultures were maintained in medium with charcoal-stripped bovine serum for 24 hours prior to seeding in 6-well plates. Seeding densities varied with treatment time and were aimed at obtaining 80% confluent cell cultures at the time of harvesting; after 24, 48, or 72 hours of treatment. RNA isolation was performed as above.
# MCF-7 cell cultures were maintained as above and seeded in 6-well plates at a low seeding density to obtain cell cultures that were 80% confluent at the end of the treatment. Cell cultures were treated with various concentrations of the cyclic peptide 24 hours after seeding and then every two days until harvesting the cells at day eight post-treatment RNA was isolated from each treatment.
# MCF-7 cells were seeded in DC5 medium into each well of two 6-well plates and allowed to attach for 24 hours at which point the seeding medium was exchanged for serum-free medium for 24 hours. After 24 hours in serum-free medium the cells were re-fed with DC5-stripped medium containing either the vehicle control (DMSO) or GIP (from 1×10^−14 to 1×10^−5 M). Cells were re-fed every 48 hours until they were harvested after eight days of treatment and RNA was isolated. The entire procedure was repeated resulting in two independent RNA isolations. The quantity and quality of RNA isolated from each eight-day exposure for each of the concentrations are shown below. The quantity and quality of RNA obtained from these exposures is sufficient to determine the RNA expression levels of numerous genes.
# MCF-7 cells were seeded at 1×10^6 cells per well in 6-well plates. The cells were incubated for 192 h in medium containing charcoal/dextran-treated BCS and test compounds described above in the proliferation assay. Peptide was administered each day for 8 days. Total RNA was isolated using the RNAqueous 4 PCR kit (Ambion Inc.) or Tri Reagent (Molecular Research Center, Inc.). The quality of the RNAs were assessed by electrophoresis on denaturing agarose gels and were quantified at 260 nm with the Genequant Pro (Amersham Biosciences).
# Details for the quantitative RT-PCR protocol were previously reported. Fasco et al., “Quantitative RNA-polymerase chain reaction-DNA analysis by capillary electrophoresis and laser-induced fluorescence” Anal. Biochem. 224:140-147 (1995). Briefly, RNA samples were reverse transcribed and amplified using the One Step RT-PCR kit (Qiagen Inc.) in the Roche Light Cycler. Total RNA was diluted to […] for all genes assayed except for 28S, which was diluted to 0.001 mg/ml. Diluted total RNA ([…]) was incubated with Qiagen RT-PCR master mix and was reverse transcribed for 30 min at 50° C. Following reverse transcription, samples were heated for 15 min at 95° C. to activate the HotStarTaq DNA polymerase and to simultaneously inactivate the reverse transcriptase. Gozgit et al., “Differential action of polycyclic aromatic hydrocarbons on endogenous estrogen-responsive genes and on a transfected estrogen-responsive reporter in MCF-7 cells” Toxicol. & Appl. Pharmacol. 196:58-67 (2004).
# Gene-specific primers ([…]) were used for the following: Cyclin D3, D1, CDK2, CDK4, CDK6, RB1, Ki67, Cyclin E1, Cyclin BI, and with B-Actin serving as housekeeping (control) gene. […]
smiles,measurement,setting,value
"CC[C@H](C)[C@H](NC(=O)[C@@H]1CSSC[C@H](NC(=O)[C@H](C)NC(=O)[C@H](CC(C)C)NC(=O)[C@H](CC(C)C)NC(=O)[C@H](CCCCN)NC(=O)[C@H](CC(=O)O)NC(=O)[C@H](CCC(=O)O)NC(=O)[C@H](CO)NC(=O)[C@@H](N)CC(C)C)C(=O)NCC(=O)N[C@@H](CCC(=O)O)C(=O)NCC(=O)N[C@@H](C)C(=O)N[C@@H](C)C(=O)N[C@@H](CC(=O)O)C(=O)N[C@@H]([C@@H](C)CC)C(=O)N[C@@H]([C@@H](C)CC)C(=O)N[C@@H]([C@@H](C)CC)C(=O)NCC(=O)N[C@@H](Cc2c[nH]cn2)C(=O)N[C@@H](CC(C)C)C(=O)N1)C(=O)N[C@@H](CCCNC(=N)N)C(=O)N[C@@H](Cc1c[nH]cn1)C(=O)N[C@@H](CCC(=O)O)C(=O)N[C@@H](CCSC)C(=O)N[C@H](C(=O)N1CCC[C@H]1C(=O)N[C@H](C(=O)N[C@@H](CC(N)=O)C(=O)N1CCC[C@H]1C(=O)NCC(=O)N[C@H](C(=O)O)C(C)C)C(C)C)[C@@H](C)O [Cyclic GIP] (HELM PEPTIDE1{L.S.E.D.K.L.L.A.C.G.E.G.A.A.D.I.I.I.G.H.L.C.I.R.H.E.M.T.P.V.N.P.G.V}$PEPTIDE1,PEPTIDE1,9:R3-22:R3$$$V2.0; N-terminus and C-terminus assumed)",Growth suppression of MCF-7 cells,"MCF-7 cells; 8 days, 10^−8 to 10^−12 M",80 to 90%
same,Most effective concentration for growth suppression,"MCF-7 cells; culture day-8, tested 10^−5 to 10^−14 M",10^−8 M
same,"mRNA levels of CDK2, CDK4, CDK6, Cyclin D1, CCND3, RB1","[1]; 1×10^−7 M, 24 or 48 hours",did not result in significant changes in mRNA levels
same,"Cyclin D1 mRNA, fold increase",[1]; 8 days,1.71 fold
same,"Ki67, cdk2, cdk6, and Cyclin B1 mRNA levels",[1]; 8 days,no effect
same,"Rb1 mRNA, fold increase",[1]; 8 days,2.4 fold
same,"cdk4 mRNA, fold increase",[1]; 8 days,2.4 fold
same,"Expression of Cyclin D1, RB1 and CDK4","[1]; 8 days, 0.1 nM (Cyclin D1 and RB1) or 1 pM (CDK4)",increased about two-fold
same,"Cyclin-E mRNA, fold reduction","[1]; 8 days, 10^−8 to 10^−12 M",2.1 to 4.6 fold
same,Expression levels of Cyclin E1,"[1]; 8 days, each of the five concentrations tested",greatly reduced
same,"Ki67, cdk2, cdk6, and Cyclin B1 mRNA levels","[1]; 8 days, listed as cyclic peptide",little changes in mRNA expression levels
same,"Cyclin E1 mRNA levels, Fold Decrease",[1]; concentration 1e−08 (10 nM),4.58 fold
same,"Cyclin E1 mRNA levels, Fold Decrease",[1]; concentration 1e−09,3.03 fold
same,"Cyclin E1 mRNA levels, Fold Decrease",[1]; concentration 1e−10,2.07 fold
same,"Cyclin E1 mRNA levels, Fold Decrease",[1]; concentration 1e−11,2.36 fold
same,"Cyclin E1 mRNA levels, Fold Decrease",[1]; concentration 1e−12 (1 pM),3.26 fold
